Data as given in patent publication US20170121683A1, “ARYL HYDROCARBON RECEPTOR DISRUPTION AND ENHANCEMENT” (priority 2015, published 2017).

Key:
[1] = tested on: hESC-derived non-adherent hematopoietic progenitor cells; experiment: Cell cycle analysis (EdU/propidium iodide flow cytometry); type: cell-based, human; settings: Day 6+5, SR-1 or TCDD, n=3
Method: FIG. 10A. Non-adherent hematopoietic progenitor cells derived from hESCs were cultured in the presence of DMSO, SR-1, and TCDD until Day 6+5. Cell cycle phase was assessed using flow cytometry to determine the total percentage of G0/G1)(EdU^−PI^lo, S-phase (EdU^+PI^+), or G2/M (EdU^−PI^hi). Representative flow cytometry plots are shown. FIG. 10B. Quantification of cell cycle analysis, n=3, *p<0.05, **p<0.01, ***p<0.001 as assessed by two-way ANOVA+Tukey-Kramer multiple comparisons post-hoc test.
Spin EBs were differentiated into hemato-endothelial cells with non-adherent cells harvested on Day 6+5. Cells were cultured in a 24-well plate and harvested after 1 week for flow cytometry analysis. Cells were co-stained with anti-human CD34-PECy7 to monitor proliferation of HSPCs. For cell cycle analysis, Day 6+5 non-adherent cells derived from EBs were harvest and monitored for S-phase using the Click-iT EdU Alex Fluor 647 flow cytometry assay kit per manufacturer instructions. Prior to flow cytometry, cells were counterstained with 50 μg/mL propidium iodide supplemented with 100 μg/mL RNAse A (New England BioLabs, Ipswich, Mass.).

[2] = tested on: hESC-derived hematopoietic cells; experiment: qRT-PCR of lymphoid-specific gene expression; type: cell-based, human; parameters: expression of TBX21/TBET, fold vs DMSO-treated control / expression of EOMES, fold vs DMSO-treated control: concentration or dose not given beside the values; settings: Day 11+28
Method: FIG. 13A. Schema of hESC differentiation into lymphoid cells as spin-embryoid bodies (spin-EBs). hESCs are made into spin-EBs at Day 0 and cultured in Stage 1 conditions with defined cytokines to promote mesoderm development for 11 days. At Day 11, spin-EBs are transferred onto OP9-DL1 in the presence of NK cell differentiation media (NKDM) to promote lymphoid differentiation. Cells are treated beginning at Day 11+0 with either 1 μM SR-1, 10 nM TCDD, or DMSO vehicle control with media exchanges and/or harvesting performed every week for up to 4 weeks. FIG. 13B. At Day 11, differentiated spin-EBs (photo) are phenotyped for CD34^+CD45^+ expression and transferred to OP9-DL1 stroma in NKDM. Non-adherent hematopoietic cells cultured either in the presence of DMSO, SR-1, or TCDD were assessed for developing NK cell immunophenotype based on CD56^+CD45^+ expression at Days 11+21, and 11+28; representative flow cytometry plots from one differentiation are shown. FIG. 13C. Quantification of fold-change in total percentage of CD56^+CD45^+ cells at both Day 11+21 and Day 11+28 when treated with DMSO, SR-1, or TCDD. SR-1 and TCDD treatments for each differentiation are normalized to DMSO controls. n=3 independent differentiation experiments, error bars represent SEM, *p<0.05 as assessed with two-way ANOVA+Tukey-Kramer multiple comparisons post-hoc test. FIG. 13D. Non-adherent hematopoietic progenitor cells derived from hESCs differentiated in the presence of SR-1, TCDD, or DMSO controls were harvested at Day 11+28 and probed for gene expression by quantitative real-time PCR (qRT-PCR). For each gene, Ct values were normalized to GAPDH at each time point and data is presented as relative fold-change to DMSO treated controls. n=3, error bars represent SEM, *p<0.05, #p<0.01 using student's t-test. FIG. 13E. Non-adherent hematopoietic progenitor cells derived from hESCs differentiated in the presence of SR-1, TCDD, or DMSO controls were harvested at Day 11+28 and assessed for CD107a expression following 4 hours of co-culture with K562 target cells at 2:1 effector:target ratio. SSC: side scatter. Representative flow cytometry plots are shown from one experiment. FIG. 13F. Quantification of percentage of CD107a^+ cells when treated with DMSO, SR-1, or TCDD at Day 11+28, n=2-3 replicates.
Spin-EBs were generated as described above (see also Knorr et al. Stem Cells Dev. 2013; 22(13):1861-9; Ni et al. Embryonic Stem Cell Immunobiol. Methods Protoc. Methods Mol. Biol. 2013; 1029:33-41; Hermanson et al. Stem Cells. 2016; 34(1):93-101). Following 11 days of mesoderm conditioning (Day 11), spin-EBs were collected and analyzed by flow cytometry to assess hematopoietic progenitor cell potential (see flow cytometry methods for antibodies used) (FIG. 4A). Spin-EBs yielding >30% CD34^+CD45^+ cells were transferred onto 24-well plates coated with irradiated OP9-DL1 cells (as described in Martin et al. Blood. 2008; 112(7):2730-7; La Motte-Mohs et al. Blood. 2005; 105(4):1431-9) (now defined as Day 11+0). EBs and OP9-DL1 were co-cultured in NK differentiation media (NKDM) supplemented initially with SCF, IL-15, IL-7, Flt3-L (all R&D Systems), and IL-3 (PeproTech) for one week; DMSO, SR-1, or TCDD were also added at Day 11+0. Every week, a one-half media change with NKDM supplemented with SCF, IL-15, IL-7, Flt3-L, and drugs was performed. hESCs were differentiated for four additional weeks (Day 11+28) and non-adherent cells were harvested for analysis. […]

SMILES | percentage of cells in G0/G1 phase (EdU−PIlow) [1] | percentage of cells in S-phase (EdU+PI+) [1] | expression of EOMES, fold vs DMSO-treated control [2] [fold] | expression of ID2, fold vs DMSO-treated control [2] [fold] | expression of TBX21/TBET, fold vs DMSO-treated control [2] [fold]
CC(C)n1cnc2c(NCCc3ccc(O)cc3)nc(-c3csc4ccccc34)nc21 [SR-1, StemReginin-1] | 43.7%±1.82 | 38.2%±1.00 | 5.12±0.52 | 2.49±0.003 | 3.44±0.55
Clc1cc2c(cc1Cl)Oc1cc(Cl)c(Cl)cc1O2 [TCDD, 2,3,7,8-tetrachlorodibenzo-p-dioxin] | 25.8±0.34% | 38.2%±1.03 | 1.84±0.11 | – | 1.56±0.07
